PubChem BioAssay AID2060496 (Molecular Pharmacology Branch, DTP, NCI, 2025)

System: 276233-004-R-J1-PDC complex spheroid viability
Experiment: Anticancer human tumor 276233-004-R-J1-PDC patient-derived colon adenocarcinoma cell line growth inhibition [GQUAD]
Settings: for IC50: curve of first compound; for viability, T/C: stronger effect = lower value
Source text: DNA G-quadruplex Stabilizer Agents in Combinations in Complex Spheroids
A high-throughput screen of multi-cell type tumor spheroids was designed to identify active combinations of DNA G-quadruplex stabilizer agents and targeted small molecules. Complex spheroids include a stromal component modeled by human endothelial cells (HUVEC) and fibroblasts modeled by human mesenchymal stem cells (MSCs). The concentration ranges selected for each drug and investigational agent were based upon clinically achievable concentrations if the clinical Cmax of the agent was known.
Compounds. The drugs and investigational agents: pidnarulex (CX-5461; NSC782164), APTO-253 (NSC789042), BRACO-19 (NSC847499), peposertib (NSC802822), ceralasertib (NSC780249), elimusertib (NSC800525), camonsertib (NSC841442), AZD-1390 (NSC803789), olaparib (NSC753686), talazoparib (NSC767125), ART-558 (NSC835418), sotorasib (NSC818433), MRTX-1133 (NSC836407), SN-38 (NSC673596), topotecan (NSC609699), etoposide (NSC141540), doxorubicin (NSC123127), gemcitabine (NSC613327), 5-fluorouracil (NSC19893), paclitaxel (NSC125973), vemurafenib (NSC761431), panobinostat (NSC761190), R-306465 (JNJ-16241199; NSC773264), adavosertib (NSC754352), TP-3654 (NSC805149), carboplatin (NSC241240), KSQ-4279 (NSC840948), and staurosporine (NSC755774) were obtained from the National Cancer Institute (NCI) Developmental Therapeutics Program Chemical Repository (34). The FDA-approved anticancer drug set is available from the NCI Developmental Therapeutics Program. […] The stock solutions were prepared in dimethyl sulfoxide (DMSO, Sigma-Aldrich, St. Louis, MO, cat. D2650) at 800-fold the tested concentration and stored at -70 degrees C prior to their use. All drugs and investigational agents were tested over a range starting from a high concentration at or near the clinical Cmax and decreasing in half-log increments. If the clinical Cmax for an agent had not been determined, the highest concentration tested was 10 microM.
2.3 Cell Culture. All cells were maintained in an incubator at 37 degrees C and 5% CO2 with 95% humidity. The PDC lines were cultured according to standard operating procedures established by the NCI PDMR. All PDCs were thawed and cultured in Matrigel-coated flasks prepared with a working solution of 1X Ham's F-12 nutrient mix, without supplementation (Invitrogen, cat. 11765054), 100 U/mL penicillin-streptomycin (Invitrogen, cat. 15140122), and 2.5% Matrigel (Corning Inc., cat. 354248) for the first three passages. The 857933-349-R-J2-PDC line was cultured in 6C/Colon 1B media, which includes advanced DMEM/F-12 (Thermo Fisher Scientific, cat. 12634028), 10 mM HEPES (Thermo Fisher Scientific, cat. 15630080), 1X GlutaMAX supplement (Thermo Fisher Scientific, cat. 35050061), 0.1 mg/mL primocin (InvivoGen, cat. ant-pm-2), 10% defined fetal bovine serum, heat inactivated (HyClone Laboratories Inc., cat. SH30070.03HI), 50% L-WRN conditioned media (ATCC, cat. CRL-3276), 1.25 mM N-Acetyl-L-cysteine (Sigma-Aldrich, cat. A9165), 10 mM nicotinamide (Sigma-Aldrich, cat. N0636), 1X B-27 supplement (Thermo Fisher Scientific, cat. 17504044), 1X N-2 supplement (Thermo Fisher Scientific, cat. 17502048), 10 microM Y-27632 dihydrochloride (Tocris Bioscience, cat. 1254), and 50 ng/mL human EGF recombinant protein (Thermo Fisher Scientific, cat. PHG0311). The 485176-168-R4-J1-PDC line was cultured in Panc media, which includes all 6C/Colon 1B media components plus 100 ng/mL human FGF-10 (Thermo Fisher Scientific, cat. 100-26), 500 nM SB-431542 (Selleckchem, cat. S1067), and gastrin (Tocris, cat. 3006).
[…]

[1] = second compound 0.0316 µM, first compound 0.0316 µM
[2] = second compound 0.0316 µM, first compound 0.1 µM
[3] = second compound 0.0316 µM, first compound 0.316 µM
[4] = second compound 0.0316 µM, first compound 1 µM
[5] = second compound 0.0316 µM, first compound 3.16 µM
[6] = second compound 0.0316 µM, first compound 10 µM
[7] = second compound 0.1 µM, first compound 0.0316 µM
[8] = second compound 0.1 µM, first compound 0.1 µM
[9] = second compound 0.1 µM, first compound 0.316 µM
[10] = second compound 0.1 µM, first compound 1 µM
[11] = second compound 0.1 µM, first compound 3.16 µM
[12] = second compound 0.1 µM, first compound 10 µM
[13] = second compound 0.316 µM, first compound 0.0316 µM
[14] = second compound 0.316 µM, first compound 0.1 µM
[15] = second compound 0.316 µM, first compound 0.316 µM
[16] = second compound 0.316 µM, first compound 1 µM
[17] = second compound 0.316 µM, first compound 3.16 µM
[18] = second compound 0.316 µM, first compound 10 µM
[19] = second compound 1 µM, first compound 0.0316 µM
[20] = second compound 1 µM, first compound 0.1 µM
[21] = second compound 1 µM, first compound 0.316 µM
[22] = second compound 1 µM, first compound 1 µM
[23] = second compound 1 µM, first compound 3.16 µM
[24] = second compound 1 µM, first compound 10 µM
[25] = second compound 3.16 µM, first compound 0.0316 µM
[26] = second compound 3.16 µM, first compound 0.1 µM
[27] = second compound 3.16 µM, first compound 0.316 µM
[28] = second compound 3.16 µM, first compound 1 µM
[29] = second compound 3.16 µM, first compound 3.16 µM
[30] = second compound 3.16 µM, first compound 10 µM
[31] = second compound 10 µM, first compound 0.0316 µM
[32] = second compound 10 µM, first compound 0.1 µM
[33] = second compound 10 µM, first compound 0.316 µM
[34] = second compound 10 µM, first compound 1 µM
[35] = second compound 10 µM, first compound 3.16 µM
[36] = second compound 10 µM, first compound 10 µM
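Further: spheroids exposed to drugs for seven days.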
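Wherever viability, T/C is given: 100% = DMSO vehicle control viability.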

With COc1cc(C2c3cc4c(cc3C(OC3OC5COC(C)OC5C(O)C3O)C3COC(=O)C23)OCO4)cc(OC)c1O (centres undefined) + Cc1[nH]c2ccc(F)cc2c1-c1nc2c3cccnc3c3ncccc3c2[nH]1 the IC50 (second compound 0.0316 µM) was greater than 10 µM, the IC50 (second compound 0.1 µM) was greater than 10 µM and the IC50 (second compound 0.316 µM) was greater than 10 µM. It also gave an IC50 (second compound 1 µM) greater than 10 µM, an IC50 (second compound 3.16 µM) of 2.82 µM and an IC50 (second compound 10 µM) of less than 0.0316 µM. For the same molecule, the viability, T/C [1] was 72.9%, the viability, T/C [2] was 82.7% and the viability, T/C [3] was 111%. It also gave a viability, T/C [4] of 80.6%, a viability, T/C [5] of 89.2% and a viability, T/C [6] of 83.7%. For the same molecule, the viability, T/C [7] was 89.9%, the viability, T/C [8] was 110% and the viability, T/C [9] was 84.2%. It also gave a viability, T/C [10] of 78.9%, a viability, T/C [11] of 83.7% and a viability, T/C [12] of 76.3%. It also gave a viability, T/C [13] of 79.8%, a viability, T/C [14] of 79.7% and a viability, T/C [15] of 85.2%. It also gave a viability, T/C [16] of 101%, a viability, T/C [17] of 83% and a viability, T/C [18] of 69%. For the same molecule, the viability, T/C [19] was 78.4%, the viability, T/C [20] was 65.1% and the viability, T/C [21] was 71.4%. For the same molecule, the viability, T/C [22] was 64.9%, the viability, T/C [23] was 73.7% and the viability, T/C [24] was 64.2%. The viability, T/C [25] was 53%, the viability, T/C [26] was 63.3% and the viability, T/C [27] was 52%. The viability, T/C [28] was 65.7%, the viability, T/C [29] was 47.3% and the viability, T/C [30] was 50.9%. For the same molecule, the viability, T/C [31] was 50.1%, the viability, T/C [32] was 49.6% and the viability, T/C [33] was 44.2%. For the same molecule, the viability, T/C [34] was 50.9%, the viability, T/C [35] was 41% and the viability, T/C [36] was 45%.
COc1ncnc(C2CC2)c1-c1ncc2cnn(Cc3ccc(-c4nc(C(F)(F)F)cn4C(C)C)cc3)c2n1 + Cc1[nH]c2ccc(F)cc2c1-c1nc2c3cccnc3c3ncccc3c2[nH]1 showed an IC50 (second compound 0.0316 µM) greater than 10 µM, an IC50 (second compound 0.1 µM) greater than 10 µM and an IC50 (second compound 0.316 µM) greater than 10 µM. The IC50 (second compound 1 µM) was 0.886 µM, the IC50 (second compound 3.16 µM) was less than 0.0316 µM and the IC50 (second compound 10 µM) was less than 0.0316 µM. It also gave a viability, T/C [1] of 87.2%, a viability, T/C [2] of 81.3% and a viability, T/C [3] of 79.2%. For the same molecule, the viability, T/C [4] was 76.4%, the viability, T/C [5] was 80.4% and the viability, T/C [6] was 76.2%. It also gave a viability, T/C [7] of 75.5%, a viability, T/C [8] of 79.2% and a viability, T/C [9] of 63.5%. It also gave a viability, T/C [10] of 75.7%, a viability, T/C [11] of 66.6% and a viability, T/C [12] of 71%. For the same molecule, the viability, T/C [13] was 70%, the viability, T/C [14] was 63.3% and the viability, T/C [15] was 83.6%. For the same molecule, the viability, T/C [16] was 53.4%, the viability, T/C [17] was 73% and the viability, T/C [18] was 72%. It also gave a viability, T/C [19] of 58%, a viability, T/C [20] of 42.3% and a viability, T/C [21] of 57.8%. The viability, T/C [22] was 51.4%, the viability, T/C [23] was 48.3% and the viability, T/C [24] was 45.3%. It also gave a viability, T/C [25] of 18.7%, a viability, T/C [26] of 16.2% and a viability, T/C [27] of 15.2%. It also gave a viability, T/C [28] of 14.9%, a viability, T/C [29] of 12.7% and a viability, T/C [30] of 20.7%. It also gave a viability, T/C [31] of 34.3%, a viability, T/C [32] of 29.5% and a viability, T/C [33] of 47.7%. It also gave a viability, T/C [34] of 31.4%, a viability, T/C [35] of 27.4% and a viability, T/C [36] of 33.6%.
